Laboratory results from patent publication US5609749A, “Electrochemical assay method with novel p-phenylenediamine compound” (Mochida Pharmaceutical Co., Ltd., priority 1993, dated 1997).

Key:
[1] = Current response of electron mediators in buffer solution and in the presence of blood, urine
From the text: Of these oxidation-reduction enzymes, glucose oxidase (GOD) is used in enzyme electrodes for the measurement of blood glucose level and horseradish peroxidase (HRPO) is used as a label enzyme in specific binding assays such as DNA hybridization, immunoassay and the like. […] However, these electron mediators were not able to show stable and reproducible response in the presence of blood, urine and the like because of the interfering substances contained therein.

[2] = biological target: T1, Horseradish peroxidase (HRPO) (Armoracia rusticana, UniProt P00433); assay: Electron transfer activity 2: HRPO-hydrogen peroxide-compound, current at -80 mV or -150 mV; format: biochemical; settings: -80 mV or -150 mV vs Ag/AgCl, pH 6.0
T1 construct: purchased TOYOBO
T1 sequence (P00433 31-338 limits assumed): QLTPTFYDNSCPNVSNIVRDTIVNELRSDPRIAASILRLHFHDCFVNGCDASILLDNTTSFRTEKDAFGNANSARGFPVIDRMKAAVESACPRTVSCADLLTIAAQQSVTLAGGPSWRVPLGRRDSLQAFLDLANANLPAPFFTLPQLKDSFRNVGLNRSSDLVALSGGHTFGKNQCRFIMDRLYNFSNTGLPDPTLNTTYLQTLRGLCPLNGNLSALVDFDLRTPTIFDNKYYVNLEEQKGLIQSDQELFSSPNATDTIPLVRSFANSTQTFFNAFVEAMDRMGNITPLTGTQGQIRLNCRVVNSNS
Description: Measurement of electron transfer activities of TCPD, THEPD, TDHPD, HTEPD, N,N-BHDPD, N,N'-BHPD, N,N'-BHDPD, and p-phenylenediamine derivatives having substituted amino group by reacting p-phenylenediamine with propyleneoxide--2
Horseradish peroxidase (HRPO, manufactured by TOYOBO) was dissolved in 0.1M phosphate buffer (pH 6.0) containing 0.1M NaCl to prepare 0M and 5.0×10^-7 M HRPO solutions. Also, hydrogen peroxide (manufactured by Wako Pure Chemical Industries) was dissolved in the same buffer to prepare a 1.0×10^-1 M solution. In the same manner, each of the TCPD, THEPD, TDHPD, HTEPD, N,N-BHDPD, N,N'-BHPD, N,N'-BHDPD, and p-phenylenediamine derivatives having substituted amino group by reacting p-phenylenediamine with propyleneoxide obtained in Synthesis Examples 1 to 9 was dissolved in the same buffer to prepare a 5.0×10^-3 M solution.
Each of these solutions was mixed in 0.1M phosphate buffer (pH 6.0) containing 0.1M NaCl in the following mixing ratio just before the measurement to prepare solutions of the following compositions A and B, and electric current was measured continuously in the presence (composition A) or absence (composition B) of HRPO.
Using the same apparatus of Test Example 2, electric current was measured in the presence (composition A) or absence (composition B) of HRPO for 5 or 10 minutes after application of potential of -80 mV (vs Ag/AgCl, the same shall apply hereinafter) in the case of TEPD, THEPD, and TDHPD, or -150 mV in the case of TCPD, HTEPD, N,N-BHDPD, N,N'-BHPD, N,N'-BHDPD, and p-phenylenediamine derivatives having substituted amino group by reacting p-phenylenediamine with propyleneoxide.

Glucose oxidase (GOD) = biological target: T2, Glucose oxidase (GOD) (Aspergillus niger, UniProt P13006); assay: Electron transfer activity 1: GOD-glucose-compound, current at +300 mV; format: biochemical; settings: +300 mV vs Ag/AgCl, pH 6.0
T2 construct: purchased Boehringer-Mannheim
Description: Measurement of electron transfer activities of TEPD, TCPD, THEPD, TDHPD, HTEPD, N,N'-BHPD, N,N-BHDPD, N,N'-BHDPD, and p-phenylenediamine derivatives having substituted amino group by reacting p-phenylenediamine with propyleneoxide--1
Glucose oxidase (GOD, manufactured by Boehringer-Mannheim) was dissolved in 0.1M phosphate buffer (pH 6.0) containing 0.1M NaCl to prepare 0M and 4.0×10^-4 M GOD solutions. Also, glucose (manufactured by Junsei Kagaku) was dissolved in the same buffer to prepare a 1.5M solution. In the same manner, each of the TEPD, TCPD, THEPD, TDHPD, HTEPD, N,N-BHDPD, N,N'-BHPD, N,N'-BHDPD, and p-phenylenediamine derivatives having substituted amino group by reacting p-phenylenediamine with propyleneoxide obtained in Synthesis Examples 1 to 9 was dissolved in the same buffer to prepare a 5.0×10^-3 M solution.
Each of these solutions was mixed in 0.1M phosphate buffer (pH 6.0) containing 0.1M NaCl in the following mixing ratio just before the measurement to prepare solutions of the following compositions A and B, and current was measured continuously in the presence (composition A) or absence (composition B) of GOD.
Using the same apparatus of Test Example 2, electric current was measured in the presence (composition A) or absence (composition B) of GOD for 10 minutes under application of potential of +300 mV (vs Ag/AgCl) to the working electrode.

[3] = Dry chemistry type chips: filter paper impregnated with mediator solution and dried on an electrode; settings: mediator dried on cellulose or glass filter paper, dissolved by liquid sample
From the text: In addition, the present inventors have attempted to prepare a dry chemistry type chips by impregnating a piece of cellulose filter paper or glass filter paper with a solution of HQ, PPD, TMPD or TEPD and drying the resulting piece on an electrode (by freeze-drying, vacuum drying, air-drying or the like) or arranging it on an electrode after drying so that the impregnated electron mediator can dissolve in a liquid sample at the time of measurement.

T2 sequence (P13006 17-605): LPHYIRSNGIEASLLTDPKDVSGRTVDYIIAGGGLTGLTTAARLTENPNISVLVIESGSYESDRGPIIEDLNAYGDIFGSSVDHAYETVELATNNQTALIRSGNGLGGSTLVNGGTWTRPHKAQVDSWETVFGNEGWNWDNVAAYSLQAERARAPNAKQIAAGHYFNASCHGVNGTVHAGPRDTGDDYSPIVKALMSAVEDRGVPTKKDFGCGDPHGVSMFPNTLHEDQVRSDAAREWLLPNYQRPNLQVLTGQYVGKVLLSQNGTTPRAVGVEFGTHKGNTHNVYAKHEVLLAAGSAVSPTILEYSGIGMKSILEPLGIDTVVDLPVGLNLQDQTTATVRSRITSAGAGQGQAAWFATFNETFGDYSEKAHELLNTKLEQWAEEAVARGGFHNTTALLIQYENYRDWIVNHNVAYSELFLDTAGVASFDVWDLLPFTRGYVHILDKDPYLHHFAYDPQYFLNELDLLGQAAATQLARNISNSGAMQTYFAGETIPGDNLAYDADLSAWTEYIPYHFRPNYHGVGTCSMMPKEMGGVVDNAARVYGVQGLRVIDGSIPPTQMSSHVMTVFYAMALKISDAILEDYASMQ

Structure (SMILES)	current response ([1]; in a buffer solution)	response in the presence of blood, urine and the like ([1]; interfering substances in blood, urine)	function as electron mediator between HRPO and the electrode [2]	function as electron mediator between GOD and the electrode (Glucose oxidase (GOD))	current response and characteristics of dry chemistry type chips [3]
CCN(CC)c1ccc(N(CC)CC)cc1.Cl.Cl [TEPD, N,N,N',N'-tetraethyl-p-phenylenediamine dihydrochloride, reference compound]	excellent current response	interference	function as a reversible electron mediator between HRPO and the electrode	function as a reversible electron mediator between GOD and the electrode	low current response and extremely poor characteristics
Cl.Cl.OCCN(CCO)c1ccc(N(CCO)CCO)cc1 [THEPD, N,N,N',N'-tetrakis-(2'-hydroxyethyl)-p-phenylenediamine dihydrochloride]	–	–	function as a reversible electron mediator between HRPO and the electrode	function as a reversible electron mediator between GOD and the electrode	–
